Assays:
[1] = Test for measuring solubility (Test Example 1, saturated solution by HPLC); format: physicochemical; details: for solubility thermodynamic at 1 h: thermodynamic from solid, room temperature, read-out: Saturated solution concentration
Procedure: About 50 mg each of the “monohydrochloride salt” and the “dihydrochloride salt” were precisely weighed, and were each suspended in a solvent so as to obtain a concentration of 500 mg/ml, respectively. Each suspension was sonicated for 10 minutes, and then was shaken at room temperature for one hour. Subsequently, each of the supernatant of the suspension was subjected to centrifugal filtration (10° C., 3000 RPM, 20 minutes) using a centrifugal filter (Ultrafree-MC PTFE 0.2 μm, manufactured by Millipore, Inc.), to thereby prepare a saturated solution. Each of the saturated solutions was analyzed by HPLC, and the concentration of the saturated solution was calculated from the peak area.

[2] = Test for measuring solubility (Test Example 2, saturated solution by HPLC); format: physicochemical; details: room temperature; for solubility thermodynamic at 1 h: thermodynamic from solid, read-out: Saturated solution concentration
Procedure: The “dihydrochloride salt” was precisely weighed in the amounts indicated in Table 2, and 20 ml each of the solvent was added to the weighed samples. The samples were shaken for one hour at room temperature. After it was visually checked that the samples were not completely dissolved, the samples were centrifuged (10° C., 3000 RPM, 20 minutes), and the supernatant was filtered through a Membrane filter, to thereby produce saturated solutions. Each of the saturated solutions was analyzed by HPLC, and the concentration of the saturated solution was calculated from the peak area.

[3] = Blood concentration measurement test (AUC after oral enteric capsule); format: in vivo, male beagle dogs; details: for AUC(0-inf): dog, compound 1 free form measured in blood plasma, read-out: AUCinf mean; for AUC(0-inf) / AUCinf CV (coefficient of variation): male beagle dogs, fasting, oral enteric capsule, 1 mg/kg as free form
Procedure: The “monohydrochloride salt” and the “dihydrochloride salt” were respectively filled in an enteric capsule (Eudragit L coat, No. 5) to an amount of administration of 1 mg/kg in terms of the “compound 1” in a free form. The capsules were forcibly orally administered to male beagle dogs (Oriental Yeast Co., Ltd.) under fasting. 0.5, 1, 2, 3, 4, 6, 8, 10 and 24 hours after the administration, about 1 mL of blood was collected from the cephalic vein under non-anesthesia conditions, with a 2.5-mL syringe through which a heparin sodium solution had been passed through in advance (equipped with a 23 G injection needle). The collected blood was cooled in ice, and the blood plasma was separated by a centrifugal operation. After a lapse of 6 hours from the administration, the dogs were fed with a usual amount of food. The concentration of the “compound 1” in a free form in the blood plasma was measured by the LC/MS/MS method in each case, and the AUC was calculated using the Non-Compartment model of WinNonlin software v5.0.1. (in the table, AUCinf means the “AUC obtained when the blood plasma concentration was extrapolated from zero to the infinity”, mean is the “average”, SD is the “standard deviation”, and CV is the “coefficient of variation”.)

[4] = aqueous buffer, pH 6.8 Buffer solution (phosphate buffer solution)
[5] = saline or isotonic, Physiological saline, shaken one hour
[6] = simulated gastric fluid, pH 1.2 Buffer solution (1st fluid for dissolution test)

solubility thermodynamic at 1 h [1, 4] | Solubility compared with the monohydrochloride salt ([1]; results of Table 1) | solubility thermodynamic at 1 h [1, 5] | solubility thermodynamic at 1 h [1, 6] | solubility thermodynamic at 1 h ([1]; Water, shaken one hour) | Saturated solution concentration ([2]; Ethanol, 0.1 g in 20 ml) | solubility thermodynamic at 1 h ([2]; aqueous buffer, pH 4.0 Buffer solution (0.05 mol/L acetic acid/sodium acetate), 4 g in 20 ml) | solubility thermodynamic at 1 h ([2]; aqueous buffer, pH 6.8 Buffer solution (2nd fluid for dissolution test), 4 g in 20 ml) | solubility thermodynamic at 1 h ([2]; saline or isotonic, Physiological saline, 5 g in 20 ml) | solubility thermodynamic at 1 h ([2]; simulated gastric fluid, pH 1.2 Buffer solution (1st fluid for dissolution test), 4 g in 20 ml) | solubility thermodynamic at 1 h ([2]; Water, 5 g in 20 ml) | AUC(0-inf) [3] | Variation of the AUC (CV) compared with the monohydrochloride salt ([3]; dogs, oral administration using enteric capsules) | AUCinf CV (coefficient of variation) [3] | SMILES
210 mg/mL | significantly higher solubility | 125 mg/mL | 128 mg/mL | 189 mg/mL | 0.516 mg/mL | 147 mg/mL | 156 mg/mL | 98.8 mg/mL | 97.8 mg/mL | 143 mg/mL | 1390 ng·h/mL | smaller | 29.5% | Cc1n[nH]c2cc(OCCNC[C@H](O)c3cccc(NS(C)(=O)=O)c3)ccc12.Cl.Cl [dihydrochloride salt, (R)—N-[3-[2-[2-(3-methylindazol-6-yloxy)ethylamino]-1-hydroxyethyl]phenyl]methanesulfonamide dihydrochloride]
23.7 mg/mL |  | 32.2 mg/mL | 73.5 mg/mL | 36.7 mg/mL |  |  |  |  |  |  | 1110 ng·h/mL |  | 70.0% | Cc1n[nH]c2cc(OCCNC[C@H](O)c3cccc(NS(C)(=O)=O)c3)ccc12.Cl [monohydrochloride salt, (R)—N-[3-[2-[2-(3-methylindazol-6-yloxy)ethylamino]-1-hydroxyethyl]phenyl]methanesulfonamide hydrochloride, reference compound]

From US20100222404A1, “INDAZOLE DERIVATIVE DIHYDROCHLORIDE” (ASAHI KASEI PHARMA CORPORATION, priority 2008, published 2010)
